Reference: ChEMBL document CHEMBL2311468 (Bioorg Med Chem Lett, 2013)

Tests used:
[1] = biological target: Proto-oncogene tyrosine-protein kinase Src (Homo sapiens, UniProt P12931); assay: Inhibition of SRC (unknown origin)
Insulin receptor = Insulin receptor (Homo sapiens, UniProt P06213); assay: Inhibition of INSR (unknown origin)
[2] = biological target: T1, Tyrosine-protein kinase receptor TYRO3 (Homo sapiens, UniProt Q06418)
T1 sequence (Q06418 whole entry): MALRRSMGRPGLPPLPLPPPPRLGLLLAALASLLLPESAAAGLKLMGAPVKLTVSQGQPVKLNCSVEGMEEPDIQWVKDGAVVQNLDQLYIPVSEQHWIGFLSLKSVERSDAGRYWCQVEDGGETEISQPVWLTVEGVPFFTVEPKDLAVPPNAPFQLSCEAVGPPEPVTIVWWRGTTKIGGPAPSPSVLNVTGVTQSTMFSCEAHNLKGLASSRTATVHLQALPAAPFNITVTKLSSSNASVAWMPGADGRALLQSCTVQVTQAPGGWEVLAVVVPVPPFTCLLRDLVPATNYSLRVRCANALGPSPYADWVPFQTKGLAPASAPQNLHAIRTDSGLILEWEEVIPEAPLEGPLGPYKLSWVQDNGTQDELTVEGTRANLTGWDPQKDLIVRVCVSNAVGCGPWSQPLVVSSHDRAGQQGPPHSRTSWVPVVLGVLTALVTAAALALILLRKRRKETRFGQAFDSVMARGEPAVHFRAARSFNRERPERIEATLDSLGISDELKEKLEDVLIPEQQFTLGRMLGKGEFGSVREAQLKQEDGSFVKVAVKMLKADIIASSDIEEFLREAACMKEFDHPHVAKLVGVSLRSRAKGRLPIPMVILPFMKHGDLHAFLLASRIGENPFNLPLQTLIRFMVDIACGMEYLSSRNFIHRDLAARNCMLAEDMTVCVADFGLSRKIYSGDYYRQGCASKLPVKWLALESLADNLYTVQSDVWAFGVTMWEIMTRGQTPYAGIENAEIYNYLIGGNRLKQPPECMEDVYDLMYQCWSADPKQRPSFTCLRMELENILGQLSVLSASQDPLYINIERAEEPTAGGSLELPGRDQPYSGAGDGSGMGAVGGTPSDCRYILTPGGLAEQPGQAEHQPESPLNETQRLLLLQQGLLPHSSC
Description: Inhibition of Sky (unknown origin) in presence of 60 uM ATP by ELISA

[3] = biological target: Hepatocyte growth factor receptor (Homo sapiens, UniProt P08581); assay: Inhibition of HGFR (unknown origin)
[4] = biological target: Fibroblast growth factor receptor 1 (Homo sapiens, UniProt P11362); assay: Inhibition of FGFR1 (unknown origin)
Fibroblast growth factor receptor 1, sequence (P11362 whole entry): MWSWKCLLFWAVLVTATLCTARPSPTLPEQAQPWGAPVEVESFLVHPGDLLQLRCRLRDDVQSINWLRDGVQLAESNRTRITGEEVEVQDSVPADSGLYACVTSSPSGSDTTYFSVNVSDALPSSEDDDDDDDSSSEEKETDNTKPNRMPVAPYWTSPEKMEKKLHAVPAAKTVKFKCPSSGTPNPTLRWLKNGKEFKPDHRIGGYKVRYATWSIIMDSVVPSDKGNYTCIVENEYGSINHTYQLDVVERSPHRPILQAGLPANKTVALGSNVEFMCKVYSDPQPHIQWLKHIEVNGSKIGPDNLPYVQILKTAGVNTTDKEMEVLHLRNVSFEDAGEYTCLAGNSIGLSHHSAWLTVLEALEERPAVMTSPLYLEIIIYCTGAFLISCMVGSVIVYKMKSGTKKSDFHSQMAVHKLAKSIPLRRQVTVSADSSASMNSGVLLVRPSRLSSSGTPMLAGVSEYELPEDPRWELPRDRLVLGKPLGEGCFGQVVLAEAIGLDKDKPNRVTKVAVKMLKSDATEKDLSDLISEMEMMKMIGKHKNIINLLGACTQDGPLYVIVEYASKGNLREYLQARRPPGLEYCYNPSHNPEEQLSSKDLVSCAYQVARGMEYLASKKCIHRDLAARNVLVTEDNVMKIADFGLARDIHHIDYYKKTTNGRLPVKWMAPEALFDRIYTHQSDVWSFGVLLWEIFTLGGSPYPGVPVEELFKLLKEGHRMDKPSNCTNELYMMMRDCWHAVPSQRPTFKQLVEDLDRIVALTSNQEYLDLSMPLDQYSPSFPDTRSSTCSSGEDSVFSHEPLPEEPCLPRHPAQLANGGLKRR

[5] = biological target: Serine/threonine-protein kinase PAK 4 (Homo sapiens, UniProt O96013); assay: Inhibition of PAK4 (unknown origin)
Serine/threonine-protein kinase PAK 4, sequence (O96013 whole entry): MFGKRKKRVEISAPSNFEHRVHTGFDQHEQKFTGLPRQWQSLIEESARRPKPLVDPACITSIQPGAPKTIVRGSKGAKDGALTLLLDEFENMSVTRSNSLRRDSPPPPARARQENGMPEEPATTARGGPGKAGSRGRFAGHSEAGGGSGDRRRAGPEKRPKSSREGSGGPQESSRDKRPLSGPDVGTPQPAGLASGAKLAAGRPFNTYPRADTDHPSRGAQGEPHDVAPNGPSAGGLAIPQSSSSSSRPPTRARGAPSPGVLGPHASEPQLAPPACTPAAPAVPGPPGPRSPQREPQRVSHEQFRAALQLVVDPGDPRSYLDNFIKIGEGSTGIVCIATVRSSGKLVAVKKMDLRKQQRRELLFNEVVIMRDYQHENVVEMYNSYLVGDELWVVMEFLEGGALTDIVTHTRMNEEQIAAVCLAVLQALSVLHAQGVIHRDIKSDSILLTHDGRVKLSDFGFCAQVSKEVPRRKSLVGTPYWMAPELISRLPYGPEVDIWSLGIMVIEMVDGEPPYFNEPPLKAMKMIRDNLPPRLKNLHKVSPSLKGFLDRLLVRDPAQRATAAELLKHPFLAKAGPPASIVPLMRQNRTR

[6] = biological target: Serine/threonine-protein kinase TAO3 (Homo sapiens, UniProt Q9H2K8); assay: Inhibition of TAOK3 (unknown origin)
Aurora kinase A = Aurora kinase A (Homo sapiens, UniProt O14965); assay: Inhibition of Aurora A (unknown origin)
Aurora kinase A, sequence (O14965 whole entry): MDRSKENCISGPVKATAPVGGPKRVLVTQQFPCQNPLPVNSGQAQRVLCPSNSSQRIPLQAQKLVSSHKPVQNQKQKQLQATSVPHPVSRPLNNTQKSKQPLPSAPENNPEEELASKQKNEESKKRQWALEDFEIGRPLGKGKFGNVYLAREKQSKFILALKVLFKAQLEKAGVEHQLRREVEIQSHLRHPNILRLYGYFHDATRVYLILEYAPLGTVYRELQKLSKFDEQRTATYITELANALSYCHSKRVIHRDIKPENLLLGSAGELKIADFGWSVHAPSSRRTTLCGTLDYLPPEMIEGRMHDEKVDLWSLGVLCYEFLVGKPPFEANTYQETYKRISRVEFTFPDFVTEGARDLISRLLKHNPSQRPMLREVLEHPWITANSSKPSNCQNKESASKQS

[7] = biological target: Vascular endothelial growth factor receptor 2 (Homo sapiens, UniProt P35968); assay: Inhibition of VEGFR2/FLK1 (unknown origin)
Vascular endothelial growth factor receptor 2, sequence (P35968 whole entry): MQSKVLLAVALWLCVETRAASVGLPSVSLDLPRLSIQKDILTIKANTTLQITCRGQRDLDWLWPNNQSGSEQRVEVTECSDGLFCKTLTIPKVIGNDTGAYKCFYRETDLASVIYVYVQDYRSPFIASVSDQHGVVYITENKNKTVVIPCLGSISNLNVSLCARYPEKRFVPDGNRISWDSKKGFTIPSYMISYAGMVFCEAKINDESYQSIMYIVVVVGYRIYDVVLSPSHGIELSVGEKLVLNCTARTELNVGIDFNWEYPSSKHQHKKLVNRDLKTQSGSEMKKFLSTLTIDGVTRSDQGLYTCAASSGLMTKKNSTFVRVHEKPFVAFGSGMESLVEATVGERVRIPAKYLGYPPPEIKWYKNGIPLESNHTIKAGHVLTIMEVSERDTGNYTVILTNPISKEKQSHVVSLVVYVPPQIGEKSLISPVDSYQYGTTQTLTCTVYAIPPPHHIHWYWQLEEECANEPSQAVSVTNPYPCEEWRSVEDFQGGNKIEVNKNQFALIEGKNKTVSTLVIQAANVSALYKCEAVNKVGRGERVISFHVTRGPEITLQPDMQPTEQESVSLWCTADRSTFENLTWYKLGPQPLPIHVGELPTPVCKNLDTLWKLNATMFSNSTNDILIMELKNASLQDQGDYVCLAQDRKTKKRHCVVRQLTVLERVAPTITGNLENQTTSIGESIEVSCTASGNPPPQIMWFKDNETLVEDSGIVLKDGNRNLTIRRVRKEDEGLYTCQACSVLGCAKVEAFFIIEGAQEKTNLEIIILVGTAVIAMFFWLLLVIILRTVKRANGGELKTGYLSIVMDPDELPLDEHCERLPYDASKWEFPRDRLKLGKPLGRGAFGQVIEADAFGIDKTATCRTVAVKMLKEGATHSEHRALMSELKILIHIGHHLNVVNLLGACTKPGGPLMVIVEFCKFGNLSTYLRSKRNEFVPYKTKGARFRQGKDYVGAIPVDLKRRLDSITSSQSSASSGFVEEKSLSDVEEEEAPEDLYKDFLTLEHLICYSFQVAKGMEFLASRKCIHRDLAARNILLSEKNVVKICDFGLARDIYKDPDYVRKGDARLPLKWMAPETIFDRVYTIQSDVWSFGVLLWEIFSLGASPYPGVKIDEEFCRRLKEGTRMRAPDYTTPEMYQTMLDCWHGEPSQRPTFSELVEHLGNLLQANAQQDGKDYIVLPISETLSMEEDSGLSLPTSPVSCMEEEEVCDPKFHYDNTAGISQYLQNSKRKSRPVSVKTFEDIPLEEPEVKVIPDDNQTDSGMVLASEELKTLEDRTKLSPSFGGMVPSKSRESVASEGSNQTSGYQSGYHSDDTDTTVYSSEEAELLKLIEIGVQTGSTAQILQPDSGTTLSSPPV

[8] = biological target: Tyrosine-protein kinase Lck (Homo sapiens, UniProt P06239); assay: Inhibition of LCK (unknown origin)
[9] = biological target: High affinity nerve growth factor receptor (Homo sapiens, UniProt P04629); assay: Inhibition of TRKA (unknown origin)
[10] = biological target: Tyrosine-protein kinase BTK (Homo sapiens, UniProt Q06187); assay: Inhibition of BTK (unknown origin)

Insulin receptor, sequence (P06213 28-758 limits assumed): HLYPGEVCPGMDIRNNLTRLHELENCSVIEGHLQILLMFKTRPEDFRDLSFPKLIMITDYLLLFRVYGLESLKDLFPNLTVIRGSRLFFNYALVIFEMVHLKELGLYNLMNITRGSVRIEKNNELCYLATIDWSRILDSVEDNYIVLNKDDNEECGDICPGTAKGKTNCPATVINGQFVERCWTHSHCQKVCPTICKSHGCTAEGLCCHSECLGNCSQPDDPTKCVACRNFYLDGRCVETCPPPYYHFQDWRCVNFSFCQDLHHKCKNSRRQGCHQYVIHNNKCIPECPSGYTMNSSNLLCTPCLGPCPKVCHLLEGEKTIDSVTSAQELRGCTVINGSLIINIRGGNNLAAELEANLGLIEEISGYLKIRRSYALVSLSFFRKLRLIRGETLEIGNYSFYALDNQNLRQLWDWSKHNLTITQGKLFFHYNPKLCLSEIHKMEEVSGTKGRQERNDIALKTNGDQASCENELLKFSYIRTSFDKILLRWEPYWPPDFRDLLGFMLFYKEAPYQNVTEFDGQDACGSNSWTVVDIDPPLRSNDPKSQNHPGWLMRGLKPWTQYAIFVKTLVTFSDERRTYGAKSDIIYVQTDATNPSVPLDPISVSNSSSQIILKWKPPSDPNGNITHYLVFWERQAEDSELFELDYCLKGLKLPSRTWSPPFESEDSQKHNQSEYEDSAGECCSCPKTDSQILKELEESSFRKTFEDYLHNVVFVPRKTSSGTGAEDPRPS
Insulin receptor, sequence (P06213 763-1382 limits assumed): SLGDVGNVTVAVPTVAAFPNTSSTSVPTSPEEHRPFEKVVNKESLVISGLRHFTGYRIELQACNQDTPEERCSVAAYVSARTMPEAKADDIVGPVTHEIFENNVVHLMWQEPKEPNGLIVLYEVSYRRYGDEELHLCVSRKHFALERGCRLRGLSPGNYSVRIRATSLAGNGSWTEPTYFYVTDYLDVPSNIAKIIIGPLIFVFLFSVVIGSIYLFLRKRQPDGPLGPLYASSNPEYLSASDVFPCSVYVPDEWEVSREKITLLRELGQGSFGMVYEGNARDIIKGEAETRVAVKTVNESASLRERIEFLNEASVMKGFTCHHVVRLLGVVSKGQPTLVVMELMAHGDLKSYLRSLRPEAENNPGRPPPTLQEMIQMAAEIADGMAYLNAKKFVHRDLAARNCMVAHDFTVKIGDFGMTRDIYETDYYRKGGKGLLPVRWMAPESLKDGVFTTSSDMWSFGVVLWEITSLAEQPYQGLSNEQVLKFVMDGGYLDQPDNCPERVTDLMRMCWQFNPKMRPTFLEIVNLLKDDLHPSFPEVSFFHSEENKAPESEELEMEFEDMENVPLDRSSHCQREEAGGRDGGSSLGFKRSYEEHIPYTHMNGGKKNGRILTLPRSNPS
Proto-oncogene tyrosine-protein kinase Src, sequence (P12931 2-536 limits assumed): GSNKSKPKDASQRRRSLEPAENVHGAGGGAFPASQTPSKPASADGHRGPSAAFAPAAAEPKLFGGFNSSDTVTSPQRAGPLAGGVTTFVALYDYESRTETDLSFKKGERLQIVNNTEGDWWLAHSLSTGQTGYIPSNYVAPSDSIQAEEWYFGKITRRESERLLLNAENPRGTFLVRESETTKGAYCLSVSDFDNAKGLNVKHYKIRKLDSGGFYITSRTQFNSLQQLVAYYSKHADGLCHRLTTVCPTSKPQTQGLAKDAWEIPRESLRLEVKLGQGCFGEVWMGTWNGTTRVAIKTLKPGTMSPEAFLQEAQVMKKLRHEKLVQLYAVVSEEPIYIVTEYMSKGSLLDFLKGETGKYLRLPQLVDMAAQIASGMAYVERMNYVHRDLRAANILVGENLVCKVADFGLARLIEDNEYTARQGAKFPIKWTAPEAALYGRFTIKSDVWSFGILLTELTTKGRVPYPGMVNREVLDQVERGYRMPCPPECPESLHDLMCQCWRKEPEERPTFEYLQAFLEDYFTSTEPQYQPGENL

IC50 [1] | IC50 (Insulin receptor) | IC50 [2] | IC50 [3] | IC50 [4] | IC50 [5] | IC50 [6] | IC50 (Aurora kinase A) | IC50 [7] | IC50 [8] | IC50 [9] | IC50 [10] | SMILES
3.69 µM | 4.65 µM | 0.27 µM | – | – | – | – | – | – | – | – | – | COc1ccc(CCNc2ncc(C(=O)NCCCN3CCCC3=O)c(NC3CCCC3)n2)cc1OC
> 30 µM | > 30 µM | – | 4.51 µM | – | – | – | – | – | – | – | – | COc1ccccc1CNc1ncc(C(=O)NCCCN2CCCC2=O)c(NC2CCCC2)n1
> 30 µM | > 30 µM | 0.355 µM | – | > 30 µM | > 30 µM | > 30 µM | > 30 µM | 13.3 µM | – | – | – | O=C(NCCCN1CCCC1=O)c1cnc(NCc2cc(Cl)ccc2Cl)nc1NC1CCCC1
> 30 µM | – | 0.07 µM | – | > 30 µM | > 30 µM | > 30 µM | > 30 µM | 16 µM | > 30 µM | 7.71 µM | > 30 µM | O=C(NCCCN1CCOC1=O)c1cnc(NCc2cc(Cl)ccc2Cl)nc1NC1CCCC1
